Measured values published in patent publication US8829029B2, “Dual modulators of 5HT2A and D3 receptors” (Hoffmann-La Roche Inc., priority 2008, dated 2014).

Legend:
[1] = target: human 5-HT2A serotonin receptor (Homo sapiens (Human), UniProt P28223); experiment: Radioligand binding ([3H]-ketanserin) to cloned human 5-HT2A receptor expressed in HEK-293 EBNA cells; settings: membranes of transfected HEK-293 EBNA cells, 1.1 nM [3H]-ketanserin, 1 h at RT
Description: The ability of the compounds to bind to the 5-HT2A, D3 and D2 receptors was determined using radioligand binding to cloned receptors selectively expressed in HEK-293 EBNA cells.
(§1) HEK-293 EBNA cells were transiently transfected with expression plasmids encoding for the human D2 or D3 dopamine- or for the human 5-HT2A serotonin receptor, respectively. The cells were harvested 48 h post-transfection, washed three times with cold PBS and stored at −80° C. prior to use. The pellet was suspended in cold 50 mM Tris-HCl buffer containing 10 mM EDTA (pH 7.4) and homogenized with a Polytron (Kinematica AG, Basel, Switzerland) for 20-30 sec at 12,000 rpm. After centrifugation at 48,000×g for 30 min at 4° C., the pellet was resuspended in cold 10 mM Tris-HCl buffer containing 0.1 mM EDTA (pH 7.4), homogenized, and centrifuged as above. This pellet was further resuspended in a smaller volume of ice cold 10 mM Tris-HCl buffer containing 0.1 mM EDTA (pH 7.4) and homogenized with a Polytron for 20-30 sec at 12,000 rpm. The protein content of this homogenate was determined with the Bio-Rad (Bradford) Protein Assay (Biorad Laboratories GmbH, München, Germany) according to the instructions of the manufacturer using gamma globulin as the standard. This homogenate was stored at −80° C. in aliquots and thawed immediately prior to use.
Aliquots of membrane preparations were thawed at RT, resuspended in assay buffer (D2, D3: 50 mM Tris-HCl, 120 mM NaCl, 5 mM MgCl2, 1 mM EDTA, 5 mM KCl, 1.5 mM CaCl2, pH=7.4; 5-HT2A: 50 mM Tris-HCl, 10 mM MgCl2, 1 mM EGTA, pH=7.4), homogenized with a Polytron for 20-30 sec at 12,000 rpm and adjusted to a final concentration of approximately 7.5 μg protein/well (D2, D3) and 15 μg protein/well (5-HT2A), respectively.
(§2) The binding affinity (Ki) of the compounds was determined using radioligand binding. Membranes were incubated in a total volume of 200 μl with a fixed concentration of radioligand (final concentration approximately 0.7 nM [^3H]-spiperone for D2, 0.5 nM [^3H]-spiperone for D3, and 1.1 nM [^3H]-ketanserin for 5-HT2A) and ten concentrations of test compound in ranging between 10 μM-0.1 nM for 1 h at RT. At the end of the incubation, the reaction mixtures were filtered on to unifilter 96-well white microplates with bonded GF/C filters (Packard BioScience, Zürich, Switzerland; preincubated for 1 h in 0.1% polyethylenimine (PEI) in assay buffer) with a Filtermate 196 harvester (Packard BioScience) and washed 3 times with cold assay buffer. The nonspecific binding was determined with equally composed reaction mixtures in the presence of 10 μM unlabelled spiperone. Per well 45 μl of Microscint 40 (Perkin Elmer, Schwerzenbach, Switzerland) was added, plates for sealed, shaken for 20 min and counted for 3 min on a Topcount Microplate Scintillation Counter (Canberra Packard SA, Zürich, Switzerland) with quenching correction.
(§3) The CPM value for each duplicate of a concentration of competing compound was averaged (y1), then the % specific binding was calculated according to the equation (((y1−non-specific)/(total binding−non-specific))×100). Graphs were plotted with the % specific binding using XLfit, a curve fitting program that iteratively plots the data using Levenburg Marquardt algorithm. The single site competition analysis equation used was y=A+((B−A)/(1+((x/C)^D))), where y is the % specific binding, A is the minimum y, B is the maximum y, C is the IC50, x is the log10 of the concentration of the competing compound and D is the slope of the curve (the Hill Coefficient). From these curves the IC50 (inhibition concentration at which 50% specific binding of the radioligand was displaced) and Hill coefficient were determined. The affinity constant (Ki) was calculated using the Cheng-Prusoff equation Ki=(IC50/1+([L]/Kd), where [L] is the concentration of radioligand and Kd is the dissociation constant of the radioligand at the receptor as determined by the saturation isotherm.

[2] = target: human D3 dopamine receptor (Homo sapiens (Human), UniProt P35462); experiment: Radioligand binding ([3H]-spiperone) to cloned human D3 receptor expressed in HEK-293 EBNA cells; settings: membranes of transfected HEK-293 EBNA cells, 0.5 nM [3H]-spiperone, 1 h at RT
human D3 dopamine receptor, sequence (P35462 whole entry): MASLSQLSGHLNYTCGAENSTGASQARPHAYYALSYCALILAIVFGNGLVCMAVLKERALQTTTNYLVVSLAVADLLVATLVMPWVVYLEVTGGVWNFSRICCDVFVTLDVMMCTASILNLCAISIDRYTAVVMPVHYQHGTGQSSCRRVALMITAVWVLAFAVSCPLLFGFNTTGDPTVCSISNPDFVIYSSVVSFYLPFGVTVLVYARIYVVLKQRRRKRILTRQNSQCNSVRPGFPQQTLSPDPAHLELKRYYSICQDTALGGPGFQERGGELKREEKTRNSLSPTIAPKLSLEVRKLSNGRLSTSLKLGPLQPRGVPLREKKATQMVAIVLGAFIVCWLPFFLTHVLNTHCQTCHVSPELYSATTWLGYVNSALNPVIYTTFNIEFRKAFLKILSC
Description: as §1, with “The pellet was suspended in cold 50 mM Tris-HCl buffer containing 10 mM EDTA (pH 7.4) and homogenized with a Polytron (Kinematica AG, Basel, Switzerland) for 20-30 sec at 12,000 rpm.” left out, “This pellet was further resuspended in a smaller volume of ice cold 10 mM Tris-HCl buffer containing 0.1 mM EDTA (pH 7.4) and homogenized with a Polytron for 20-30 sec at 12,000 rpm.” left out
as §2, §3

| SMILES | Ki [1] [nM] | Ki [2] [nM] |
| --- | --- | --- |
| CC(=O)N[C@H]1CC[C@H](CCN2CCC(c3noc4cc(F)ccc34)CC2)CC1 [Example 1, 4N-trans(4-{2-[4-(6-Fluoro-benzo[d]isoxazol-3-yl)-piperidin-1-yl]-ethyl}-cyclohexyl)-acetamide] | 2.22 | 4.96 |
| O=C(N[C@H]1CC[C@H](CCN2CCC(c3noc4cc(F)ccc34)CC2)CC1)C1CCOCC1 [Example 2, Tetrahydro-pyran-4-carboxylic acid trans(4-{2-[4-(6-fluoro-benzo[d]isoxazol-3-yl)-piperidin-1-yl]-ethyl}-cyclohexyl)-amide] | 1.74 | 9.74 |
| COCCC(=O)N[C@H]1CC[C@H](CCN2CCC(c3noc4cc(F)ccc34)CC2)CC1 [Example 3, N-trans (4-{2-[4-(6-Fluoro-benzo[d]isoxazol-3-yl)-piperidin-1-yl]-ethyl}-cyclohexyl)-3-methoxy-propionamide] | 1.81 | 4.75 |
| O=C(N[C@H]1CC[C@H](CCN2CCC(c3noc4cc(F)ccc34)CC2)CC1)c1ccc(N2CCOCC2)cc1 [Example 4, N-trans-(4-{2-[4-(6-Fluoro-benzo[d]isoxazol-3-yl)-piperidin-1-yl]-ethyl}-cyclohexyl)-4-morpholin-4-yl-benzamide] | 9.52 | – |
| O=C(N[C@H]1CC[C@H](CCN2CCC(c3noc4cc(F)ccc34)CC2)CC1)c1ccc(N2CCOCC2)nc1 [Example 4A, N-Trans (4-{2-[4-(6-Fluoro-benzo[d]isoxazol-3-yl)-piperidin-1-yl]-ethyl}-cyclohexyl)-6-morpholin-4-yl-nicotinamide] | 2.7 | 7.95 |
| O=C(N[C@H]1CC[C@H](CCN2CCC(c3noc4cc(F)ccc34)CC2)CC1)c1cnc(N2CCOCC2)cn1 [Example 4B, 5-Morpholin-4-yl-pyrazine-2-carboxylic acid trans (4-{2-[4-(6-fluoro-benzo[d]isoxazol-3-yl)-piperidin-1-yl]-ethyl}-cyclohexyl)-amide] | 3.81 | 19.4 |
| O=C(N[C@H]1CC[C@H](CCN2CCC(c3noc4cc(F)ccc34)CC2)CC1)c1ccc(N2CCOCC2)nn1 [Example 4C, 6-Morpholin-4-yl-pyridazine-3-carboxylic acid-trans (4-{2-[4-(6-fluoro-benzo[d]isoxazol-3-yl)-piperidin-1-yl]-ethyl}-cyclohexyl)-amide] | 3.18 | 25.3 |
| O=C(N[C@H]1CC[C@H](CCN2CCC(c3noc4cc(F)ccc34)CC2)CC1)c1ccnc(N2CCOCC2)c1 [Example 12, N-trans (4-{2-[4-(6-Fluoro-benzo[d]isoxazol-3-yl)-piperidin-1-yl]-ethyl}-cyclohexyl)-2-morpholin-4-yl-isonicotinamide] | 2.46 | – |
| O=C(N[C@H]1CC[C@H](CCN2CCC(c3noc4ccc(F)cc34)CC2)CC1)c1ccc2c(c1)OCO2 [Example 30, Benzo[1,3]dioxole-5-carboxylic acid trans (4-{2-[4-(5-fluoro-benzo[d]isoxazol-3-yl)-piperidin-1-yl]-ethyl}-cyclohexyl)-amide] | 11.2 | – |
| O=C(CC1CCCCO1)N[C@H]1CC[C@H](CCN2CCC(c3noc4cc(Cl)ccc34)CC2)CC1 (stereo partly drawn) [Example 34, N-trans (4-{2-[4-(6-Chloro-benzo[d]isoxazol-3-yl)-piperidin-1-yl]-ethyl}-cyclohexyl)-2-(tetrahydro-pyran-2-yl)-acetamide] | 5.83 | – |
| O=C(C[C@@H]1CCCCO1)N[C@H]1CC[C@H](CCN2CCC(c3noc4cc(Cl)ccc34)CC2)CC1 [Example 34A, N-trans (4-{2-[4-(6-Chloro-benzo[d]isoxazol-3-yl)-piperidin-1-yl]-ethyl}-cyclohexyl)-2-(R)-tetrahydro-pyran-2-yl-acetamide] | 13.7 | – |
| O=C(C[C@H]1CCCCO1)N[C@H]1CC[C@H](CCN2CCC(c3noc4cc(Cl)ccc34)CC2)CC1 [Example 34B, N-trans (4-{2-[4-(6-Chloro-benzo[d]isoxazol-3-yl)-piperidin-1-yl]-ethyl}-cyclohexyl)-2-(S)-tetrahydro-pyran-2-yl-acetamide] | 15.3 | – |
